Values joined by “and” are separate entries in the source; they are usually repeats but may differ in a detail not shown here. Identical values can stand only once.
Assays:
Toledo xenograft = Toledo xenograft efficacy; assay type: in vivo, mice; conditions: 200 mg/kg oral five times a week for 3 weeks, day 21
Procedure: Experiments were performed in SCID/beige female mice from Charles River Laboratories, Massachusetts, USA. Animals, approximately 7-8 weeks of age at the start of the treatment were allowed to acclimate in animal facility with access to food and water ad libitum for 3 days prior to manipulation. Animals were handled in accordance with IACUC regulations and guidelines for experiments performed in the USA and with European and French regulation for the protection of vertebrate animals for experiments performed in France. Animal well-being and behavior, including grooming and ambulation were monitored at least once a day. General health of mice was monitored and mortality recorded daily. Any moribund animals were sacrificed.
RS4;11 Acute Lymphoblastic Leukemia cell lines was obtained from ATCC. Toledo (Diffuse Large B-Cell Lymphoma) human cell lines were obtained internally through Bioresources and the Novartis-Cancer Cell Line Encyclopedia. Cells were free of Mycoplasma and murine viral contamination in the IMPACT VIII PCR assay panel (IDEXX RADIL, IDEXX laboratories INC, Westbrook, ME, USA). Cells used for subcutaneous implantation were cultured in RPMI plus 10% FBS at 37° C in a humidified atmosphere containing 5% carbon dioxide). […] Cells were resuspended in a 1:1 mixture of cold DPBS (Dulbecco's Phosphate-Buffered Saline) and Matrigel™ (Becton-Dickinson #354234) at a concentration of 3 × 10^7 cells/ml for Toledo cells, and of 1 × 10^7 cells/ml for RS4;11 cells.
For each experiment, female SCID/beige mice were implanted subcutaneously (right axillary region) with 3 × 10^6 Toledo or RS4;11 (1 × 10^6 cells for efficacy studies and 1 × 10^7 cells for pharmacodynamics studies) suspended in 1:1 mixture of cold DPBS and Matrigel™ in a total volume of 100 μl. Body weights were recorded and tumors were measured with digital calipers twice to three times a week. Tumor volume was calculated using the formula: length × width^2/2. Percent changes in body weights was calculated as (BWcurrent - BWinitial)/(BWinitial) × 100. Data is presented as percent body weight change from the day of treatment initiation.
(§1) When tumors reached approximately 200 mm^3 for efficacy studies or 300 mm^3 for pharmacodynamic studies, mice were randomized. […] Mice were treated via oral gavage at 10 ml/kg with the doses and schedules described in the figure.
For efficacy studies, percent treatment/control (T/C) values were calculated using the following formula: %T/C = 100 × ΔT/ΔC if ΔT > 0. Regression = 100 × ΔT/Tinitial if ΔT < 0 where: T = mean tumor burden of the drug-treated group on the final day of the study; ΔT = mean tumor burden of the drug-treated group on the final day of the study – mean tumor burden of the drug-treated group on initial day of dosing; Tinitial = mean tumor burden of the drug-treated group on initial day of dosing; C = mean tumor burden of the control group on the final day of the study; and ΔC = mean tumor burden of the control group on the final day of the study – mean tumor burden of the control group on initial day of dosing. If the tumor volume was less than 14 mm^3 for more than 3 consecutive measurements, animals were considered in complete regression (CR).

BFL-1 = molecular target: T1, BFL-1 (Homo sapiens, UniProt Q16548); experiment: Fluorescence polarization (FP) with Fluorescein-PUMA, BFL-1; conditions: at 3E-05 M
T1 sequence (Q16548 1-175): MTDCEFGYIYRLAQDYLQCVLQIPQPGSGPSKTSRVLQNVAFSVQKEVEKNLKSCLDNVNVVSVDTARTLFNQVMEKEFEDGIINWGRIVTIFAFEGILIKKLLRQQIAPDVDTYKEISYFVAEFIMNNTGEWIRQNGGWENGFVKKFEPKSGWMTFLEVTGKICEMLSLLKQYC
Procedure: Final concentrations of MCL-1, BFL-1, BCL-2 and BCL-XL proteins were 10, 10, 10 and 20 nM respectively. The assay plates were incubated for 2 hours at room temperature and the FP was measured on a Synergy 2 reader (Ex. 528 nm, Em. 640 nm, Cut-off 510 nm). The binding of increasing doses of compound was expressed as a percentage reduction in mP compared to the window established between ‘DMSO only’ and ‘total inhibition’ control (30 μM PUMA). […] The KI was subsequently calculated as previously described [42].

BCL-2 = BCL-2 (Homo sapiens, UniProt P10415); experiment: Isothermal titration calorimetry (ITC), BCL-2; conditions: binding to BCL-2
BCL-2, sequence (P10415 whole entry): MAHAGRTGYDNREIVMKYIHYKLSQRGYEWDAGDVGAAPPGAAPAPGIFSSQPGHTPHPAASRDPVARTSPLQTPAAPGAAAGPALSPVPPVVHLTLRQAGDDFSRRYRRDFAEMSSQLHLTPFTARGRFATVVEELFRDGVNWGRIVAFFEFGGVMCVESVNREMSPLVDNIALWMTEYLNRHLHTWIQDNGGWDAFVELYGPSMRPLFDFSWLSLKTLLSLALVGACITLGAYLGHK
Procedure: The protein was dialyzed prior to use in 2 L of 25 mM HEPES, 150 mM NaCl, 5% glycerol (v/v), 0.5% MTG (v/v) at pH 7.4 for 3 hours at room temperature. The protein was dialyzed using a 3.5 K MWCO Slide-A-Lyzer™ cassette. The protein solution was recovered, spin-filtered through a […] frit. The filtered protein was quantified by UV absorbance at 280 nm using an extinction coefficient of 36440 M^-1cm^-1. 500 ml of dialysis buffer was retained (remainder used to rinse out SCHOT bottle) and degassed for a minimum of 30 mins under vacuum with constant stirring. […] The solutions were carefully matched to ensure same solvent and buffer conditions were present in both syringe and cell (this is to minimize heat of dilution effects). The final solution was the dialysis buffer plus 1% DMSO and 0.05% P20. The experiment was performed over 13 injections with stirring at 1000 rpm, gain setting low and at 25° C. Pure water was used in the reference cell. The first injection was 0.5 μl with a duration of 1 second with a gap of 150 seconds until the further 12 injections of 3.05 μl with a duration 6.1 seconds and a 240 second interval between injections. Data was analyzed using the vendor supplied software, PEAQ-ITC Analysis Software. The data model used was the single site model. The data shown is the average of 2 or 3 independent experiments.

MCL-1 = MCL-1 (Homo sapiens, UniProt Q07820); experiment: Fluorescence polarization (FP) with Fluorescein-PUMA, MCL-1; assay type: binding
MCL-1, sequence (Q07820 whole entry): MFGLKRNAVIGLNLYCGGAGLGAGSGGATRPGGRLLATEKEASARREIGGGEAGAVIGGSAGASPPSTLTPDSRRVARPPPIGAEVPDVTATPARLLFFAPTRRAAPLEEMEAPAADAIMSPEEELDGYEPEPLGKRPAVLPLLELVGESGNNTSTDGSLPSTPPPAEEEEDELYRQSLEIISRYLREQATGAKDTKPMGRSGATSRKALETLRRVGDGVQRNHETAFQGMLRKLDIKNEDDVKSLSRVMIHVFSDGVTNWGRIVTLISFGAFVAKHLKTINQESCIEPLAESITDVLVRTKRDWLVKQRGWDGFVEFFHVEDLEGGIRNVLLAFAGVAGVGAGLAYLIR

BCL-XL/BAX complex = BCL-XL/BAX complex (Homo sapiens, UniProt Q07817); experiment: Co-immunoprecipitation in BCL-XL-overexpressing HeLa cells; conditions: 2 h
BCL-XL/BAX complex, sequence (Q07817 whole entry, one chain of several): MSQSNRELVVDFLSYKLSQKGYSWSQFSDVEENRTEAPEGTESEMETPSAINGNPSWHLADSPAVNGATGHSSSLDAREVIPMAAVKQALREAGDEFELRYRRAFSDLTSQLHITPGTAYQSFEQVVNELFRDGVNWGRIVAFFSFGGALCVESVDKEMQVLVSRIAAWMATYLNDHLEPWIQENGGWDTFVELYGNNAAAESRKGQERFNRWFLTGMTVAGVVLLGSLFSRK
Procedure: Effecten reagent (Qiagen), with 3xFlag-tagged BCL-XL
24 h later, transfected Hela and RS4;11
were put under neomycin selection (800 µg/ml, Invitrogen) were then subjected to immunoprecipitation with anti-

platelets = experiment: Platelet counts in RS4;11-bearing mice; assay type: in vivo; conditions: 100 mg/kg single oral dose, 16 h post dosing
Procedure: as §1
For pharmacodynamic studies, blood and tumors were removed 16 h post dosing and immediately snap-frozen. Total proteins were extracted from the tumors and caspase-3 activity was assessed in triplicate using CaspACE® Assay System (Promega). Platelet cell counts were determined 16 hours post dosing using Coulter AcT diff (Beckman).

RS4;11 cell line = experiment: CellTiter-Glo cell viability, RS4;11; assay type: cell-based; conditions: Homo sapiens, 72 h of treatment
Procedure: (§2) Cells were seeded into 96-well plates and treated at 8 points with 1:2 serial dilution of compounds. Cell viability was assessed and assayed for viability using CellTiter-Glo reagent (Promega) following the manufacturer's instructions. Plates were read using Tecan luminescence plate reader. Results were normalized to the viability of cells without compounds (control wells). The IC50 values were calculated using nonlinear regression algorithms in XCell software.

H146 cell line = experiment: CellTiter-Glo cell viability, H146; assay type: cell-based; conditions: Homo sapiens, NCI-H146; 72 h of treatment
Procedure: as §2

[1] = tested on: caspase-3 activity in RS4;11 tumor xenografts; experiment: Caspase-3 activity in RS4;11 tumor xenografts; assay type: in vivo; conditions: 100 mg/kg single oral gavage, 16 h post dosing, SCID mice
Procedure: Body weights were recorded and tumors were measured with digital calipers twice to three times a week. Tumor volume was calculated using the formula: length × width^2/2. Percent changes in body weights was calculated as (BWcurrent - BWinitial)/(BWinitial) × 100. Data is presented as percent body weight change from the day of treatment initiation. When tumors reached approximately 200 mm^3 for efficacy studies or 300 mm^3 for pharmacodynamic studies, mice were randomized. […] Mice were treated via oral gavage at 10 ml/kg with the doses and schedules described in the figure. For pharmacodynamic studies, blood and tumors were removed 16 h post dosing and immediately snap-frozen. Total proteins were extracted from the tumors and caspase-3 activity was assessed in triplicate using CaspACE® Assay System (Promega). Platelet cell counts were determined 16 hours post dosing using Coulter AcT diff (Beckman).

BCL-2/BAX complex = BCL-2/BAX complex (Homo sapiens, UniProt P10415); experiment: Co-immunoprecipitation in BCL-2-overexpressing HeLa cells; assay type: cell-based; conditions: 2 h
BCL-2/BAX complex, sequence (P10415 whole entry, one chain of several): as the sequence (P10415 whole entry) above

[2] = tested on: BCL-2-dependent FL5.12 cells; experiment: Apoptosis (annexin V/PI) in FL5.12 cells expressing BCL-2 upon IL-3 withdrawal; assay type: cell-based, murine; conditions: 24 h upon IL-3 withdrawal
[3] = tested on: BCL-XL-dependent FL5.12 cells; experiment: Apoptosis (annexin V/PI) in FL5.12 cells expressing BCL-XL upon IL-3 withdrawal; conditions: 24 h upon IL-3 withdrawal
[4] = tested on: isolated platelets from healthy volunteers; experiment: Apoptosis (annexin V) in isolated platelets; assay type: cell-based; conditions: Homo sapiens, Platelet; 4 healthy donors, 3 h; read-out: EC50 apoptosis (PS+) in isolated platelets
Procedure: Peripheral blood samples from CLL patients were obtained with informed patient consent and local ethical committee approval (UHL-09723). […] Interphase fluorescence in situ hybridization (FISH) was performed for detection of 17p13 deletion. Mantle cell lymphoma (MCL) primary cells were obtained after informed consent from MCL patients treated at the department of clinical hematology from the University Hospital of Nantes, France. Peripheral MCL cells from blood or pleural effusion, were purified after Ficoll-Hypaque separation with immuno-magnetic anti-CD19 beads (Miltenyi, Paris, France). Primary cells were cultured in RPMI-1640 supplemented with 10% FCS and 2 mM glutamine. Human platelets were isolated from citrate blood donated by healthy volunteers. Washed platelets were cultured in Hepes-buffered saline (HBS, 10 mM Hepes, 150 mM NaCl, 5 mM KCl, 1 mM MgSO4, pH 7.4).
EC50 values were calculated using GraphPadPrism (non-linear fit, sigmoidal dose response, variable slope). […] Cell death was assessed in the CD19+ primary MCL cells by annexinV-FITC staining combined with an analysis of altered cellular morphology (lower FCS). Fluorescence was analyzed on FACSCalibur.

CC1(C)CCC(CN2CCN(c3ccc(C(=O)NS(=O)(=O)c4ccc(NCC5CCOCC5)c([N+](=O)[O-])c4)c(Oc4cnc5[nH]ccc5c4)c3)CC2)=C(c2ccc(Cl)cc2)C1 [ABT-199, reference compound]
% T/C (Toledo xenograft): 6 % T/C | Mean TV change (Toledo xenograft; mean ± s.e.m.): 104.44 ± 70.31 mm3 | FP_BFL-1, % of inhibition at the maximal tested concentration (BFL-1): 6.4%@3E-05 | N (sites), stoichiometry (BCL-2): 1.1 sites | ∆H (enthalpy delta) (BCL-2): –12.1 kcal/mol | FP_MCL-1, % of inhibition at the maximal tested concentration (MCL-1; at 30E-06 M): 14.9% and 11.8%

CC1(C)CCC(c2ccc(Cl)cc2)=C(CN2CCN(c3ccc(C(=O)NS(=O)(=O)c4ccc(N[C@H](CCN5CCOCC5)CSc5ccccc5)c(S(=O)(=O)C(F)(F)F)c4)cc3)CC2)C1 [ABT-263, reference compound]
effect on BCL-XL/BAX complex in BCL-XL-overexpressing HeLa cells (BCL-XL/BAX complex): disrupt both BCL-2/BAX and BCL-XL/BAX complexes | platelet counts in vivo (platelets): strong decrease of platelet counts | IC50 (RS4;11 cell line): 41.5 nM | IC50 (H146 cell line): 49.7 nM | N (sites), stoichiometry (BCL-2): 0.8 sites | ∆H (enthalpy delta) (BCL-2): –13.1 kcal/mol | caspase-3 activity in tumor, times higher than in vehicle-treated animals [1]: about 20 times | FP_MCL-1, % of inhibition at the maximal tested concentration (MCL-1; at 10E-06 M): 9.4%@10E-06 | effect on BCL-2/BAX complex in BCL-2-overexpressing HeLa cells (BCL-2/BAX complex): disrupt both BCL-2/BAX and BCL-XL/BAX complexes

CN(C)CC[C@H](CSc1ccccc1)Nc1ccc(S(=O)(=O)NC(=O)c2ccc(N3CCN(Cc4ccccc4-c4ccc(Cl)cc4)CC3)cc2)cc1[N+](=O)[O-] [ABT-737, reference compound]
apoptosis induction (PS+ cells) in BCL-2-dependent FL5.12 cells [2]: efficiently induced apoptosis | apoptosis induction (PS+ cells) in BCL-XL-dependent FL5.12 cells [3]: efficiently induced apoptosis | EC50 [4]: 30 nM

— PMC5929447 (Oncotarget, 2018)
